“And” between values parts separate entries of the source, which are not always exact repeats. Equal values may be shown once.
Legend:
[1] = 1,000 ppm (v/v) or less concentration, room temperature; cited from earlier work
[2] = Relative chemical stability of cyclopropenes measured by 1H-NMR; assay type: physicochemical
Procedure, shortened: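 Compounds in CDCl3 NMR tubes stored at −20° C. or room temperature and followed by 1H-NMR. Integrals of characteristic 1-alkylcyclopropene peaks (4–6.5 ppm, 1H; 0.8–0.9 ppm, 2H) compared against 1,1,3,3-tetramethylurea internal standard (2.80 ppm); stability expressed relative to chain-length-1 analogue.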

[3] = test system: tomato; assay: Experimental Example 1: Efficacy test on tomato using emulsion (reddening grade); assay type: in vivo; conditions: individual tomatoes n=4
[4] = test system: tomato; assay: Experimental Example 2: Efficacy test on tomato using oil based formulation (reddening grade); assay type: in vivo; conditions: 1.0 mM oil-based formulation, individual tomatoes n=4
Procedure, shortened: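 Tomatoes (n=4 per group) sprayed to surface saturation with 1.0 mM oil-based (xylene/hexane) cyclopropene formulations, versus untreated and solvent controls. Kept 3 days at 25–30 °C; ripening scored 0–5 by area of red coloration.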

Row | chemical stability (in words) [2] | Stability (relative chemical stability, based on cyclopropenes having a chain length of 1) ([2]; 1H-NMR, CDCl3, stored at −20° C. or room temperature, relative to chain length 1) | SMILES | half life [1] [h] | reddening level (grade 0 to 5) ([3]; 100 μM, Day 0, room temperature (25-30° C.)) | reddening level (grade 0 to 5) ([3]; 100 μM, Day 1, room temperature (25-30° C.)) | reddening level (grade 0 to 5) ([3]; 100 μM, Day 2, room temperature (25-30° C.)) | reddening level (grade 0 to 5) ([3]; 100 μM, Day 3, room temperature (25-30° C.)) | reddening level (grade 0 to 5) ([3]; 1.0 mM, Day 0, room temperature (25-30° C.)) | reddening level (grade 0 to 5) ([3]; 1.0 mM, Day 1, room temperature (25-30° C.)) | reddening level (grade 0 to 5) ([3]; 1.0 mM, Day 2, room temperature (25-30° C.)) | reddening level (grade 0 to 5) ([3]; 1.0 mM, Day 3, room temperature (25-30° C.)) | Tomato results: reddening level (grade 0 to 5) ([4]; Day 0, room temperature (25-30° C.)) | Tomato results: reddening level (grade 0 to 5) ([4]; Day 1, room temperature (25-30° C.)) | Tomato results: reddening level (grade 0 to 5) ([4]; Day 2, room temperature (25-30° C.)) | Tomato results: reddening level (grade 0 to 5) ([4]; Day 3, room temperature (25-30° C.))
1 |  |  | CC1=CC1 [1-methylcyclopropene] | ≥ 240 |  |  |  |  |  |  |  |  |  |  |  | 
2 | much more stable | >>10 | C1=C(CCCCc2ccccc2)C1 [(4-Phenylbutyl), 1-(4-phenylbutyl)cyclopropene] |  | 0 (an area in which the surface of tomato was colored in pink was 10% or less) (2×) and 1 (an area in which the surface of tomato was completely colored in red was 10 to 40%) and 2 (an area in which the surface of tomato was completely colored in red was 40 to 70%) | 0 (an area in which the surface of tomato was colored in pink was 10% or less) (2×) and 1 (an area in which the surface of tomato was completely colored in red was 10 to 40%) and 2 (an area in which the surface of tomato was completely colored in red was 40 to 70%) | 1 (an area in which the surface of tomato was completely colored in red was 10 to 40%) (2×) and 2 (an area in which the surface of tomato was completely colored in red was 40 to 70%) and 3 (an area in which the surface of tomato was completely colored in red was 70% or more and the bottom area remained green) | 2 (an area in which the surface of tomato was completely colored in red was 40 to 70%) (2×) and 3 (an area in which the surface of tomato was completely colored in red was 70% or more and the bottom area remained green) and 4 | 0 (an area in which the surface of tomato was colored in pink was 10% or less) (2×) and 1 (an area in which the surface of tomato was completely colored in red was 10 to 40%) and 2 (an area in which the surface of tomato was completely colored in red was 40 to 70%) | 0 (an area in which the surface of tomato was colored in pink was 10% or less) (2×) and 1 (an area in which the surface of tomato was completely colored in red was 10 to 40%) and 2 (an area in which the surface of tomato was completely colored in red was 40 to 70%) | 0 (an area in which the surface of tomato was colored in pink was 10% or less) (2×) and 1 (an area in which the surface of tomato was completely colored in red was 10 to 40%) and 3 (an area in which the surface of tomato was completely colored in red was 70% or more and the bottom area remained green) | 1 (an area in which the surface of tomato was completely colored in red was 10 to 40%) (2×) and 2 (an area in which the surface of tomato was completely colored in red was 40 to 70%) and 3 (an area in which the surface of tomato was completely colored in red was 70% or more and the bottom area remained green) | 0 (an area in which the surface of tomato was colored in pink was 10% or less) (2×) and 1 (an area in which the surface of tomato was completely colored in red was 10 to 40%) and 2 (an area in which the surface of tomato was completely colored in red was 40 to 70%) | 0 (an area in which the surface of tomato was colored in pink was 10% or less) (2×) and 1 (an area in which the surface of tomato was completely colored in red was 10 to 40%) and 2 (an area in which the surface of tomato was completely colored in red was 40 to 70%) | 0 (an area in which the surface of tomato was colored in pink was 10% or less) (2×) and 1 (an area in which the surface of tomato was completely colored in red was 10 to 40%) and 3 (an area in which the surface of tomato was completely colored in red was 70% or more and the bottom area remained green) | 1 (an area in which the surface of tomato was completely colored in red was 10 to 40%) and 0 (an area in which the surface of tomato was colored in pink was 10% or less) and 2 (an area in which the surface of tomato was completely colored in red was 40 to 70%) and 4

Source: patent US9072293B2, “Cyclopropenes and method for applying cyclopropenes to agricultural products or crops” (Erum Biotechnologies Inc., priority 2010, dated 2015)
